Experimental data from ChEMBL document CHEMBL1126772, “Activated ketone based inhibitors of human renin” (J Med Chem, 1993).
Square brackets hold non-standard residues; d marks the D form. Peptide text beside a SMILES is read from it. * marks the point of attachment. ξ: configuration not given here. ξCha = NC(CC1CCCCC1)C(=O)O; Boc = CC(C)(C)OC(=O)*; CF3 = FC(F)(F)*

These molecules were tested against T1, Cathepsin D (Bos taurus, UniProt P80209) (assay: In vitro inhibitory activity against bovine cathepsin D). Conditions: read-out: I50.
T1 sequence (P80209 whole entry): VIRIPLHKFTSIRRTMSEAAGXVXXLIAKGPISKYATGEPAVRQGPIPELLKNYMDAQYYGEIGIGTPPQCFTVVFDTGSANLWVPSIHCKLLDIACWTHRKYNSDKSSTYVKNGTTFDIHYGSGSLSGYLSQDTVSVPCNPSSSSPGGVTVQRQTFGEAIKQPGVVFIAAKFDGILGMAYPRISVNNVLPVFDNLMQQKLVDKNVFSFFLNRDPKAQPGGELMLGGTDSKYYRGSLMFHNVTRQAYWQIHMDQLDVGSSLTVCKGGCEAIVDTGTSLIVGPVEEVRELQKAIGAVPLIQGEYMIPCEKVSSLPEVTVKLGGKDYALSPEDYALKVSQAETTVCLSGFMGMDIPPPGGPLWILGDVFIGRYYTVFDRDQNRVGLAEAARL

IC50 | SMILES
1.3 µM | CCOC(=O)C(=O)C(CC1CCCCC1)NC(=O)[C@H](CC(C)C)NC(=O)[C@H](Cc1ccccc1)NC(=O)OC(C)(C)C (stereo partly drawn)

What follows are molecules tested against T2, Renin (Homo sapiens, UniProt P00797) (assay: In vitro inhibitory potency against human kidney renin.). Conditions: read-out: I50.
T2 sequence (P00797 whole entry): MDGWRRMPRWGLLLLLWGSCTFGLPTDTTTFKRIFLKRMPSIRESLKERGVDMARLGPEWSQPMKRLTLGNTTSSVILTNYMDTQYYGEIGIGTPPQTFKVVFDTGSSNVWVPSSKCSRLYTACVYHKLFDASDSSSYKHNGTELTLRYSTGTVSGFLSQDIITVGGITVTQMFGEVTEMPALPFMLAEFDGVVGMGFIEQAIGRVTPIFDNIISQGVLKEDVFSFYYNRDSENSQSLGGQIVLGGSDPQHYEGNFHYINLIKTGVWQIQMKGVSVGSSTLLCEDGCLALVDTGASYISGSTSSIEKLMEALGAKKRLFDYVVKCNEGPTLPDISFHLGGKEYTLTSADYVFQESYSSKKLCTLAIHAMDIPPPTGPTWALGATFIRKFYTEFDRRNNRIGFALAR
Format: tissue-based

SMILES | IC50
CCOC(=O)C(=O)C(CC1CCCCC1)NC(=O)[C@H](CC(C)C)NC(=O)OCc1ccccc1 (stereo partly drawn) | 52 µM
CCCC1([C@H](O)[C@H](CC2CCCCC2)NC(=O)[C@H](CC(C)C)NC(=O)[C@H](Cc2ccccc2)NC(=O)OC(C)(C)C)SCCCS1 | 2.2 µM
CCCC(=O)[C@H](O)[C@H](CC1CCCCC1)NC(=O)[C@H](Cc1c[nH]cn1)NC(=O)OC(C)(C)C | 420 µM
CC(C)C[C@H](NC(=O)[C@H](Cc1ccccc1)NC(=O)OC(C)(C)C)C(=O)NC(CC1CCCCC1)C(=O)C(=O)O (stereo partly drawn) | 64 µM
CC(C)C[C@H](NC(=O)[C@H](Cc1ccccc1)NC(=O)OC(C)(C)C)C(=O)N[C@@H](CC1CCCCC1)C(C)O (stereo partly drawn) | 3.2 µM
CC(C)C[C@H](NC(=O)[C@H](Cc1ccccc1)NC(=O)OC(C)(C)C)C(=O)NC(CC1CCCCC1)C(O)C(F)(F)F (stereo partly drawn) | 4 µM
CC(C)C[C@H](NC(=O)[C@H](Cc1ccccc1)NC(=O)OC(C)(C)C)C(=O)NC(CC1CCCCC1)C(=O)C(F)(F)F (stereo partly drawn) (Boc-Phe-Leu-[ξCha]-CF3) | 0.25 µM

These reach a lower IC50. Values come first.

IC50 | SMILES
0.0053 µM | CCOC(=O)[C@H](O)[C@H](CC1CCCCC1)NC(=O)[C@H](CC(C)C)NC(=O)[C@H](Cc1ccccc1)NC(=O)OC(C)(C)C
0.014 µM | CCCC(=O)[C@H](O)[C@H](CC1CCCCC1)NC(=O)[C@H](CC(C)C)NC(=O)[C@H](Cc1ccccc1)NC(=O)C1CCCC1
0.052 µM | CCCC(=O)C(=O)[C@H](CC1CCCCC1)NC(=O)[C@H](CC(C)C)NC(=O)[C@H](Cc1ccccc1)NC(=O)OC(C)(C)C
0.028 µM | CCCC(=O)C(=O)[C@H](CC1CCCCC1)NC(=O)[C@H](CC(C)C)NC(=O)[C@H](Cc1ccccc1)NC(=O)C1CCCC1
0.0047 µM | CCOC(=O)[C@H](O)[C@H](CC1CCCCC1)NC(=O)[C@H](CC(C)C)NC(=O)[C@@H](CC(=O)N1CCOCC1)Cc1ccccc1
0.023 µM | CCCC(=O)[C@H](O)[C@H](CC1CCCCC1)NC(=O)[C@H](CC(C)C)NC(=O)[C@H](Cc1ccccc1)NC(=O)OC(C)(C)C
0.015 µM | CCOC(=O)C(=O)C(CC1CCCCC1)NC(=O)[C@H](CC(C)C)NC(=O)[C@H](Cc1ccccc1)NC(=O)OC(C)(C)C (stereo partly drawn)
0.0041 µM | CCOC(=O)C(=O)[C@H](CC1CCCCC1)NC(=O)[C@H](CC(C)C)NC(=O)[C@@H](CC(=O)N1CCOCC1)Cc1ccccc1
0.11 µM | CCOC(=O)[C@@H](O)[C@H](CC1CCCCC1)NC(=O)[C@H](CC(C)C)NC(=O)[C@H](Cc1ccccc1)NC(=O)OC(C)(C)C

What follows are molecules tested against Pepsin A (Sus scrofa, UniProt P00791) (assay: In vitro inhibitory activity against aspartic proteinases pepsin from porcine). Conditions: read-out: I50.
Pepsin A, sequence (P00791 whole entry): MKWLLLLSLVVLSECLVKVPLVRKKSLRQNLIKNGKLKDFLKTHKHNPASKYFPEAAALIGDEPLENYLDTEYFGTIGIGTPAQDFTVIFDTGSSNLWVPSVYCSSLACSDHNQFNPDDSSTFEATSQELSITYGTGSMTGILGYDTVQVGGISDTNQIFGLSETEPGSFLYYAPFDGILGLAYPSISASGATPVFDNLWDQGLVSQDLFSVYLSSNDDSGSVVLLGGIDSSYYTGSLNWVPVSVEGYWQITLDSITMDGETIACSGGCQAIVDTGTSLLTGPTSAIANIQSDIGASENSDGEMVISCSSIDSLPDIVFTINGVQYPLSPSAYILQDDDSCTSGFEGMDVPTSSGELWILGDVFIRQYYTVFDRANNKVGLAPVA

IC50 | SMILES
2.7 µM | CCOC(=O)C(=O)C(CC1CCCCC1)NC(=O)[C@H](CC(C)C)NC(=O)[C@H](Cc1ccccc1)NC(=O)OC(C)(C)C (stereo partly drawn)
